Data from PubChem BioAssay AID248 (DTP/NCI, 2004).
“And” between values parts separate entries of the source, which are not always exact repeats. Identical values can stand only once. Inconclusive results and toxic doses are left out. Cut-off read from the data, not from the text of the source: active = T/C of 150% or more; inactive = T/C below 125%.

Tested on: L1210 leukemia ip in BDF1 mice, survival T/C
Assay: NCI In Vivo Anticancer Drug Screen. Data for tumor model L1210 Leukemia (intraperitoneal) in B6D2F1 (BDF1) mice
Conditions: endpoint: mean survival time, higher = longer survival
Summary of the method: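 Read-out is survival time, reported as the treated-group measurement over the vehicle-control measurement.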

[1] = dose: 100.0 mg/kg/injection, schedule: Q01DX009 (ip), vehicle: saline with Tween-80
[2] = dose: 100.0 mg/kg/injection, schedule: Q04DX003 (ip), vehicle: saline with Tween-80
[3] = dose: 200.0 mg/kg/injection, schedule: Q01DX009 (ip), vehicle: saline with Tween-80
[4] = dose: 200.0 mg/kg/injection, schedule: Q04DX003 (ip), vehicle: saline with Tween-80
[5] = dose: 400.0 mg/kg/injection, schedule: Q01DX009 (ip), vehicle: saline with Tween-80
[6] = dose: 400.0 mg/kg/injection, schedule: Q04DX003 (ip), vehicle: saline with Tween-80
[7] = dose: 100.0 mg/kg/injection, schedule: Q04DX003 (ip), vehicle: saline
[8] = dose: 200.0 mg/kg/injection, schedule: Q04DX003 (ip), vehicle: saline

Measured: T/C

CC(=O)Nc1ccc(NC(=O)c2ccc(Cl)cc2)cc1
inactive: dose: 50.0 mg/kg/injection, schedule: Q01DX001 (ip), vehicle: saline with Tween-80 95 % of control | dose: 100.0 mg/kg/injection, schedule: Q01DX001 (ip), vehicle: saline with Tween-80 95 % of control | [1] 97 % of control and 87 % of control | dose: 100.0 mg/kg/injection, schedule: Q04DX002 (ip), vehicle: saline with Tween-80 90 % of control and 91 % of control | [2] 92 % of control | dose: 200.0 mg/kg/injection, schedule: Q01DX001 (ip), vehicle: saline with Tween-80 90 % of control | [3] 95 % of control and 97 % of control | dose: 200.0 mg/kg/injection, schedule: Q04DX002 (ip), vehicle: saline with Tween-80 93 % of control and 97 % of control | [4] 89 % of control | dose: 400.0 mg/kg/injection, schedule: Q01DX001 (ip), vehicle: saline with Tween-80 87 % of control | [5] 97 % of control and 90 % of control | dose: 400.0 mg/kg/injection, schedule: Q04DX002 (ip), vehicle: saline with Tween-80 90 % of control and 92 % of control | [6] 87 % of control

CC(=O)CC(=O)Nc1cc(Cl)c(NC(=O)CC(C)=O)cc1Cl
inactive: [4] 121 % of control | [6] 88 % of control

CC(C)=NC(=O)NO.[Cl][Zn][Cl]
inactive: dose: 15.0 mg/kg/injection, schedule: Q01DX001 (ip), vehicle: carboxymethylcellulose (CMC) 95 % of control | dose: 30.0 mg/kg/injection, schedule: Q01DX001 (ip), vehicle: carboxymethylcellulose (CMC) 89 % of control | dose: 60.0 mg/kg/injection, schedule: Q01DX001 (ip), vehicle: carboxymethylcellulose (CMC) 100 % of control

O=C1c2ccccc2-c2cc(Br)c(N=C(NO)C(F)(F)F)cc21
inactive: dose: 100.0 mg/kg/injection, schedule: Q01DX001 (ip), vehicle: carboxymethylcellulose (CMC) 115 % of control | dose: 200.0 mg/kg/injection, schedule: Q01DX001 (ip), vehicle: carboxymethylcellulose (CMC) 105 % of control | dose: 400.0 mg/kg/injection, schedule: Q01DX001 (ip), vehicle: carboxymethylcellulose (CMC) 108 % of control

CSCCC(C#N)c1ccccc1 (configuration not stated)
inactive: dose: 50.0 mg/kg/injection, schedule: Q01DX009 (ip), vehicle: saline with Tween-80 93 % of control | [1] 104 % of control | [2] 103 % of control | [7] 103 % of control | [3] 110 % of control | [4] 97 % of control | [8] 97 % of control

C=CCc1cc(OC)c(OC)c(OC)c1
inactive: [1] 104 % of control | [3] 101 % of control | [5] 101 % of control

O=C1C(Cl)=C(Cl)C(=O)c2cc(Cl)c(Cl)cc21
inactive: dose: 10.0 mg/kg/injection, schedule: Q01DX001 (ip), vehicle: saline 93 % of control

COc1cc2cc3c4cc(OC)c(OC)cc4cc[n+]3c(/C=C/c3ccccc3)c2cc1OC
inactive: dose: 100.0 mg/kg/injection, schedule: Q04DX003 (ip), vehicle: carboxymethylcellulose (CMC) 102 % of control | dose: 200.0 mg/kg/injection, schedule: Q04DX003 (ip), vehicle: carboxymethylcellulose (CMC) 110 % of control | dose: 400.0 mg/kg/injection, schedule: Q04DX003 (ip), vehicle: carboxymethylcellulose (CMC) 100 % of control

Cc1nc2ccccc2nc1CI
inactive: dose: 3.12 mg/kg/injection, schedule: Q01DX009 (ip), vehicle: acetone 100 % of control | dose: 6.25 mg/kg/injection, schedule: Q01DX009 (ip), vehicle: acetone 104 % of control | dose: 12.5 mg/kg/injection, schedule: Q01DX009 (ip), vehicle: acetone 100 % of control | dose: 12.5 mg/kg/injection, schedule: Q04DX003 (ip), vehicle: acetone 113 % of control | dose: 18.0 mg/kg/injection, schedule: Q01DX009 (ip), vehicle: saline with Tween-80 92 % of control

O=c1[nH]cnc2ccnn12
inactive: dose: 50.0 mg/kg/injection, schedule: Q01DX009 (ip), vehicle: saline 104 % of control | dose: 100.0 mg/kg/injection, schedule: Q01DX009 (ip), vehicle: saline 107 % of control | [7] 97 % of control | [8] 92 % of control

Cc1c(/C=N/N=c2/[nH][nH]/c(=N/N=C/c3c(C)n(C)n(-c4ccccc4)c3=O)c3ccccc23)c(=O)n(-c2ccccc2)n1C
inactive: dose: 50.0 mg/kg/injection, schedule: Q01DX001 (ip), vehicle: saline 93 % of control | dose: 100.0 mg/kg/injection, schedule: Q01DX001 (ip), vehicle: saline 106 % of control | dose: 200.0 mg/kg/injection, schedule: Q01DX001 (ip), vehicle: saline 114 % of control
